Results taken from publication PMC4239038, “The Potent Cdc7-Dbf4 (DDK) Kinase Inhibitor XL413 Has Limited Activity in Many Cancer Cell Lines and Discovery of Potential New DDK Inhibitor Scaffolds” (PLoS ONE, 2014).
Values joined by “and” are separate entries in the source; they are usually repeats but may differ in a detail not shown here. Identical values can stand only once. Counter-ions that a name gives are not always drawn. Like-named read-outs stand apart in the source and are kept apart here.

What was measured:
[1] = test system: DDK; settings: read-out: DDK IC50 (in vitro), cited from earlier work
[2] = test system: Colo-205 cells; assay: Cell viability, CellTiter-Glo; format: cell-based; settings: Homo sapiens; Colo-205, 72 hrs post drug addition
[3] = test system: Colo-205 cells; settings: Colo-205, 24 hours
[4] = test system: MDA-MB-453; assay: Cell viability at 5 µM inhibitor; settings: MDA-MB-453, 5 µM, 72 hrs, relative to vehicle
[5] = test system: HCC1954 cells; assay: Caspase 3/7 activity (apoptosis); format: cell-based; settings: for Apoptosis induction (Caspase 3/7 activity): HCC1954, 24 hours
Protocol: Caspase 3/7 activity and viable cell number were then measured using the Caspase-Glo 3/7 assay (Promega) and CellTiter-Glo assay (Promega), respectively.

[6] = test system: Eight tumor cell lines; assay: Cell viability at 5 µM inhibitor, cell line panel; format: cell-based; settings: 72 hrs, relative to vehicle controls
[7] = test system: Mcm2 phosphorylation in Colo-205 cells; assay: Immunoblot of DDK-dependent Mcm2 phosphorylation; format: cell-based; settings: Colo-205, 5 µM, 24 hours
[8] = test system: HCC1954 cells; assay: Cell viability, CellTiter-Glo; format: cell-based; settings: Homo sapiens, HCC1954, 72 hrs post drug addition
[9] = test system: HCT116 (p53-/-) cells; assay: Cell viability, CellTiter-Glo; format: cell-based; settings: Homo sapiens, HCT-116, 72 hrs post drug addition
[10] = test system: human cell lines; settings: average from 61 human cell lines ref 42,43; read-out: Cellular Proliferation IC50; cited from earlier work
[11] = test system: purified Cdk9; design: method as in PMID 18469809; settings: purified Cdk9 ref 43; cited from earlier work
[12] = test system: MCF-7; assay: Cell viability at 5 µM inhibitor; settings: MCF-7, 5 µM, 72 hrs, relative to vehicle
[13] = test system: HCT116 (p53+/+) cells; assay: Cell viability, CellTiter-Glo; format: cell-based; settings: Homo sapiens, HCT-116; HCT116 (p53+/+), 72 hrs post drug addition
[14] = test system: Mcm2 Serine 53 phosphorylation in HCC1954 cells; assay: Immunoblot of DDK-dependent Mcm2 phosphorylation; format: cell-based
Protocol: Whole cell extracts were prepared by re-suspending the pellets in RIPA buffer (150 mM NaCl, 1% NP-40, 0.5% sodium deoxycholate, 0.1% SDS, 50 mM Tris HCl, pH 8) containing protease inhibitors (100 µM PMSF, 1 mM Benzamide, 2.5 µg/ml Pepstatin A, 10 µg/ml Leupeptin, and 10 µg/ml Aprotinin) and phosphatase inhibitors (1 mM each NaF, Na3VO4 and Na4P2O7). Protein concentration was measured using the BCA protein assay kit (Pierce) according to manufacturer's protocol. Equal amounts of protein were subjected to SDS-PAGE and transferred to a nitrocellulose membrane (Millipore). Transfer efficiency and equal loading was confirmed by Ponceau S staining. Following primary and secondary antibody treatments, proteins were visualized using SuperSignal West Pico solutions (Thermo Scientific). Anti-Mcm2 and anti-S53-phospho-Mcm2 antibodies were purchased from Bethyl Laboratories; anti-β-actin was from Sigma; anti-mouse and anti-rabbit HRP antibodies were from GE Healthcare; and anti-Cdc7 and anti-Dbf4 antibodies were described previously.
Effective cellular uptake of the DDK inhibitor should compromise DDK activity in vivo. Among the many targets of DDK are components of the replicative Mcm2–7 helicase. Serine 53 of Mcm2 subunit is a well-characterized target site for DDK mediated phosphorylation. We quantitated levels of phosphorylation on this site as a measure of DDK activity in vivo. […] Cells were then harvested at 0, 24, 48, and 72 hours post drug addition to measure viable cells and Mcm2 phosphorylation by immunoblotting.

[15] = target: T1, purified DDK (Homo sapiens, UniProt O00311); assay: In vitro (γ)-32P ATP DDK kinase assay (DDK auto-phosphorylation); format: biochemical; settings: increasing inhibitor concentrations
T1 construct: His6-Smt3 (SUMO) (N, cleaved yes); made in house; host or cells: E. coli BL21-RIPL (pKT37, pETDuet-1 vector)

[16] = target: T1, purified DDK; assay: DDK thermal stability shift assay (TSA); format: binding
[17] = test system: PKR; design: method as in PMID 12890478; settings: cited from earlier work
[18] = titration, beginning at a 1 µM concentration

T1 sequence (O00311 whole entry): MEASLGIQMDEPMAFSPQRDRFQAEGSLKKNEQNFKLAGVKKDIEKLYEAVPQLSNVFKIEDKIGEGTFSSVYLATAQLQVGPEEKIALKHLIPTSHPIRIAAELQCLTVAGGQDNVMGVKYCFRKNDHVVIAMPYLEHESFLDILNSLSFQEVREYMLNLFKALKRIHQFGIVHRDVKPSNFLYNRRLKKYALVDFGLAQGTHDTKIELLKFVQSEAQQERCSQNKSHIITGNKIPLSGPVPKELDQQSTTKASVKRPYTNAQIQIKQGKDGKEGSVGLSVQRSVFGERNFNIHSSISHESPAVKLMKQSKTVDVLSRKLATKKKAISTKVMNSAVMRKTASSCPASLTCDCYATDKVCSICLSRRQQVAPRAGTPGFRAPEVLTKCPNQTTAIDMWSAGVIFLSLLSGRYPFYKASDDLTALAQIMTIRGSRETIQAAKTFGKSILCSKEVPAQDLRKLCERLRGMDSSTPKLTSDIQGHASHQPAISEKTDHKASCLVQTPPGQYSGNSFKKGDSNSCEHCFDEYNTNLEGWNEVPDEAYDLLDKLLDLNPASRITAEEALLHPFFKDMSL
T1 sequence (Q9UBU7 341-674 partner limits assumed): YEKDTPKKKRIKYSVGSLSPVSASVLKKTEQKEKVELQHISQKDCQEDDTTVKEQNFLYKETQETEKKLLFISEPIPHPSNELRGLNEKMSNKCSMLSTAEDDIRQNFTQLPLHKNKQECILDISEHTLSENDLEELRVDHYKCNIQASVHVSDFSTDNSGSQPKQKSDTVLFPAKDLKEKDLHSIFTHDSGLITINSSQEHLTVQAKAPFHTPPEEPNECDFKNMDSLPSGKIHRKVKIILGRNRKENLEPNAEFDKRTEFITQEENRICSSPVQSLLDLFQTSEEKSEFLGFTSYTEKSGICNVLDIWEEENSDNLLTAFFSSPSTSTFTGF

N#Cc1ccc2ccn(-c3cc(N)ncn3)c2n1 [1-(6-aminopyrimidin-4-yl)pyrrolo[2,3-b]pyridine-6-carbonitrile]
IC50 [1]: 9 nM

NC(=O)c1cc(-c2ccnc(N)n2)[nH]c1-c1ccccc1 [5-(2-Amino-pyrimidin-4-yl)-2-phenyl-1H-pyrrole-3-carboxamide]
IC50 [1]: 22 nM

C=CCc1c(C)nc2sc3c(N)ncnc3c2c1C [7,9-dimethyl-8-prop-2-enylpyrido[2,3]thieno[2,4-d]pyrimidin-4-amine]
IC50 [1]: 20 nM

O=C1N=C(NCc2ccccc2)S/C1=C\c1c[nH]c2ncccc12 [(5Z)-2-(Benzylamino)-5-(1H-pyrrolo[2,3-b]pyridin-3-ylmethylene)-1,3-thiazol-4(5H)-one]
IC50 [1]: 9 nM

O=C1NCCc2[nH]c(-c3ccncc3)cc21 [PHA-767491, 2-pyridin-4-yl-1,5,6,7-tetrahydro-pyrrolo[3,2-c]pyridin-4-one]
IC50 [2]: 1300 nM
Apoptosis induction (Caspase 3/7 activity) [3]: induced apoptosis
Inhibition of proliferation [4]: 2.5 fold
Apoptosis induction (Caspase 3/7 activity) [5]: induced apoptosis
Anti-proliferative activity [6]: significantly inhibited proliferation in all cell lines tested
Mcm2 phosphorylation [7]: completely abolished Mcm2 phosphorylation
IC50 [8]: 640 nM
IC50 [9]: 1000 nM
IC50 [10]: 3170 nM
IC50 [11]: 34 nM
Inhibition of proliferation [12]: 2 fold
IC50 [13]: 450 nM
Mcm2 phosphorylation ([14]; HCC1954, 1 µM, 24 to 72 hours): very little residual Mcm2 phosphorylation
Mcm2 phosphorylation ([14]; HCC1954, 2 µM, by 24 hours): completely abolished Mcm2 phosphorylation
IC50 ([1]; purified kinase ref 42,43): 10 nM

Cc1ccc([N+](=O)[O-])cc1S(=O)(=O)N(C)/N=C/c1cnc2ccc(Br)cn12 [PI 3-Kα Inhibitor VIII, N-((1E)-(6-Bromoimidazo[1,2-a]pyridin-3-yl)methylene)-N'-methyl-N''-(2-methyl-5-nitrobenzene)sulfonohydrazide, HCl]
IC50 [15]: 1300 nM
ΔTm at 20 µM ([16]; library screen, 20 µM compound): 2.6 °C

O=C1Nc2ccc3ncsc3c2/C1=C/c1cnc[nH]1 [PKR inhibitor, (8Z)-8-(1H-imidazol-5-ylmethylidene)-6H-pyrrolo[2,3-g][1,3]benzothiazol-7-one]
IC50 [17]: 210 nM
Increase of Caspase 3/7 activity relative to the DMSO control ([5]; HCC1954, 2 µM, 24 hours): 20 fold
IC50 ([8]; HCC1954, 72 h): 1700 nM
IC50 [15]: 67.5 nM and ~70 nM
ΔTm at 20 µM ([16]; library screen, 20 µM compound): 2.4 °C
ΔTm [16, 18]: ≥ 2 °C
Mcm2 phosphorylation ([14]; HCC1954, 2 µM PKR inhibitor): strongly inhibited Mcm2 phosphorylation

c1ccc2c(-c3ccncc3)c[nH]c2c1 [Rockout, 3-pyridin-4-yl-1H-indole]
IC50 [15]: 860 nM
ΔTm [16, 18]: ≥ 2 °C

C[S+]([O-])c1ccc(-c2nc(-c3ccc(F)cc3)c(-c3ccncc3)[nH]2)cc1.Cl (stereo not shown) [SB 203580 hydrochloride]
ΔTm ([16]; library screen, 20 µM compound): 0 °C

CS(=O)(=O)c1ccc(-c2nc(-c3ccc(F)cc3)c(-c3ccncc3)[nH]2)cc1 [SB 203580, Sulfone]
ΔTm ([16]; 20 µM): 0.5 °C

O=C1NC(=O)c2c1c1c3ccccc3n3c1c1c2c2ccccc2n1[C@H]1CC[C@@H]3O1 [SB 218078]
Apoptosis induction (Caspase 3/7 activity) [5]: low levels of apoptosis were induced
IC50 ([8]; HCC1954, 72 h): 2420 nM
IC50 [15]: 19.3 nM
ΔTm [16, 18]: ≥ 2 °C
Mcm2 phosphorylation ([14]; HCC1954, SB 218078): modestly inhibits Mcm2 phosphorylation

NC(=O)c1ccc(-c2nc(-c3ccc4c(c3)OCO4)c(-c3ccccn3)[nH]2)cc1 [SB 431542]
ΔTm at 20 µM ([16]; library screen, 20 µM compound): 0 °C

N#C/C(=C(\N)Sc1ccc(N)cc1)c1ccccc1C(F)(F)F [SL 327]
ΔTm at 20 µM ([16]; library screen, 20 µM compound): 0.5 °C

Oc1c2ccccc2c2c3c(cccc13)N=N2 [SP 600125]
ΔTm at 20 µM ([16]; library screen, 20 µM compound): 0.2 °C

O=C(O)c1ccc2c3c1cccc3c(=O)n1c3ccccc3nc21 [STO-609]
ΔTm at 20 µM ([16]; library screen, 20 µM compound): 0.2 °C

CN(C)S(=O)(=O)c1ccc2c(c1)/C(=C/c1cc3c([nH]1)CCCC3)C(=O)N2 [SU6656]
ΔTm at 20 µM ([16]; library screen, 20 µM compound): 0.1 °C

COc1ccc2c(c1)/C(=C/c1cnc[nH]1)C(=O)N2 [SU9516]
ΔTm at 20 µM ([16]; library screen, 20 µM compound): 0 °C

CCN(CC)CCNC(=O)c1c(C)[nH]c(/C=C2\C(=O)Nc3ccc(Cl)cc32)c1C [SU11652]
ΔTm at 20 µM ([16]; library screen, 20 µM compound): 1.8 °C

CN(C)c1ccc(/C=C2\C(=O)Nc3ccccc32)cc1 [SU 4312]
ΔTm ([16]; library screen, 20 µM compound, 20 µM): 0.2 °C

Cl.Cl.NCCNc1ncc(C(N)=O)c(Nc2cccc(C(F)(F)F)c2)n1 [Syk Inhibitor II]
ΔTm ([16]; library screen, 20 µM compound): 1.2 °C

Brc1c(Br)c(Br)c2[nH]nnc2c1Br [TBB, 4,5,6,7-Tetrabromobenzotriazole]
ΔTm ([16]; library screen, 20 µM compound): 2.5 °C

CNC1CC2OC(C)(C1OC)n1c3ccccc3c3c4c(c5c6ccccc6n2c5c31)C(=O)NC4O (stereo not shown) [UCN-01, 7-Hydroxystaurosporine]
ΔTm at 10 µM ([16]; library screen, 10 µM compound): 2.1 °C

COc1cc2ncnc(Nc3cccc(O)c3)c2cc1OC [WHI-P180, Hydrochloride]
ΔTm ([16]; library screen, 20 µM compound): 0 °C

COc1cc2ncnc(Nc3ccc(Cl)cc3F)c2cc1OC.Cl [ZM 306416 hydrochloride]
ΔTm ([16]; library screen, 20 µM compound): 0 °C

Cc1ccc(NC(=O)c2cccc(N(C)C)c2)cc1NC(=O)c1ccc(O)cc1 [ZM 336372]
ΔTm ([16]; library screen, 20 µM compound): 0.5 °C

Nc1nccc(-c2cc3c([nH]2)[C@@H](CCF)CNC3=O)n1 [[(S )-2-(2-aminopyrimidin-4-yl)-7-(2-fluoro-ethyl)-1,5,6,7-tetrahydropyrrolo[3,2-c]pyridin-4-one]
IC50 [1]: 2 nM

CCCCCCCCCCCCCCCCn1cc[n+](Cc2ccccc2)c1C.[I-] [eEF-2 Kinase Inhibitor, NH125]
ΔTm ([16]; library screen, 20 µM compound): 0 °C

Bisindolylmaleimide III, Hydrochloride
ΔTm ([16]; library screen, 20 µM compound): 51 °C

Cdk1/2 Inhibitor III
ΔTm ([16]; library screen, 20 µM compound): 1.1 °C

DNA-PK Inhibitor III
ΔTm ([16]; library screen, 20 µM compound): 0.2 °C

IGF-1R Inhibitor II
ΔTm ([16]; library screen, 20 µM compound): 0 °C

JAK3 Inhibitor II
ΔTm ([16]; library screen, 20 µM compound): 0.8 °C

JAK3 Inhibitor IV
ΔTm ([16]; library screen, 20 µM compound): 0.3 °C

JAK Inhibitor I
ΔTm ([16]; library screen, 20 µM compound): 1.2 °C

KN-62
ΔTm ([16]; library screen, 20 µM compound): 0.7 °C

LY 364947
ΔTm ([16]; library screen, 20 µM compound): 0.6 °C

PI 3-Kb Inhibitor II
ΔTm ([16]; library screen, 20 µM compound): 0.2 °C

PP1 Analog II, 1NM-PP1
ΔTm ([16]; library screen, 20 µM compound): 0.2 °C

Ro-31-8220
ΔTm ([16]; library screen, 20 µM compound): 1.4 °C

VEGF Receptor Tyrosine Kinase Inhibitor II
ΔTm ([16]; library screen, 20 µM compound): 0.2 °C

Wee1/Chk1 Inhibitor
ΔTm ([16]; library screen, 20 µM compound): 0 °C
